{"source": "patent US8673914B2", "about": "“Use of phosphodiesterase inhibitors for treating multidrug resistance” (St. John's University, priority 2011, dated 2014)", "key": {"KB-C2 cells (ABCB1)": {"test_system": "KB-C2 cells (ABCB1)", "test": "[^3H]-paclitaxel accumulation (Example 1)", "format": "cell-based, human", "conditions": "no reversal agent", "description": "The intracellular accumulation of [^3H]-paclitaxel was measured as follows. […] Intracellular paclitaxel accumulation was measured by incubating cells with 0.1 μM [^3H]-paclitaxel for 2 h in the presence or absence of the reversal agents at 37° C. The cells were washed three times with ice-cold PBS, then suspended in fresh medium with or without reversal agents at 37° C. Aliquots of the extracellular medium (40 μl) were collected at various time points (0, 60, 120 min), and finally the cells were collected and lysed in 10 mM lysis buffer (pH 7.4, containing 1% Triton X-100 and 0.2% SDS). Each sample was placed in scintillation fluid and the radioactivity was measured in a Packard TRI-CARB1 1900CA liquid scintillation analyzer from Packard Instrument Company, Inc. (Downers Grove, Ill.)."}, "KB-C2 (ABCB1)": {"test_system": "KB-C2 (ABCB1)", "test": "MTT cytotoxicity/reversal assay (Example 1)", "format": "cell-based, human", "conditions": "alone", "description": "(§1) The KB-C2 and KB-3-1 were kindly provided by Dr. Akiyama (Kagoshima University, Japan). HEK293-pcDNA3.1 and wild-type HEK/ABCG2 transfected cells were established by selection with G418 after transfecting HEK293 with either (1) empty pcDNA3.1 vector or (2) pcDNA3.1 vector containing full length of ABCG2 coding arginine (R) at amino acid position 482, and were then cultured in a medium with 2 mg/ml of G418 (ABCG2-482-R2 cells). Similarly, the HEK/MRP1 (ABCC1) and HEK/ABCB1 cells were generated by transfecting the HEK293 cells with either the MRP1 expression vector or the ABCB1 expression vector. All of the cell lines were grown in Dulbecco's modified Eagle's medium (DMEM) supplemented with 10% bovine serum, 100 units/ml penicillin, and […] streptomycin in a humidified incubator containing 5% CO2 at 37° C.\n(§2) The MTT assay was used to assess cytotoxicity. The cultured cells were harvested with trypsin and resuspended in a final concentration of 4×10^3 cells/well for KB-3-1; 7.5×10^3 cells/well for KB-C2; and 8×10^3 for all of the other cell lines used in this study. Cells were seeded evenly in 96-well multiplates. […] After 68 h of incubation, 20 μl of the MTT solution (4 mg/ml) was added to each well, and the plate was further incubated for 4 h at 37° C., allowing viable cells to convert the yellow-colored MTT into dark-blue formazan crystals. Subsequently, the medium was discarded, and 100 μl of DMSO was added into each well to dissolve the formazan crystals, generating purple color. The absorbance was determined at 570 nm by an OPSYS Microplate Reader from DYNEX Technologies, Inc. (Chantilly, Va.). […] The degree of the reversal of multidrug resistance (MDR) was calculated by dividing the IC50 of an anticancer drug, e.g., an antineoplastic or chemotherapeutic drug (agent, compound), in a cell type in the absence of a reversal agent by the IC50 of the anticancer drug in the same cell type in the presence of the reversal agent. The IC50 values were calculated from survival curves using the Bliss method."}, "KB-3-1": {"test_system": "KB-3-1", "test": "MTT cytotoxicity/reversal assay (Example 1)", "format": "cell-based, human", "conditions": "alone", "description": "as §1, §2"}, "HEK/MRP7": {"test_system": "HEK/MRP7", "test": "MTT cytotoxicity assay (Example 4)", "format": "cell-based", "conditions": "alone", "description": "(§3) The MRP7 cDNA was generously provided by Dr. Gary Kruh (University of Illinois, Chicago, Ill.) and inserted into the pcDNA3.1 expression vector. […] Individual colonies were selected in medium containing G418 (1 mg/ml) and cultured for further analysis.\n(§4) MTT colorimetric assay was performed to analyze the drug sensitivity as previously described (Shi et al. (2007) Cancer Res. 67:11012-20). HEK293-pcDNA3.1 and HEK/MRP7 cells were seeded into 96-well plates in triplicate at 6000 cells/well.\n(§5) After drug incubation of 68 h, 20 μl MTT solution (4 mg/ml) was added into each well. […] The Bliss method was used to calculate the IC50 values according to survival curves."}, "HEK 293-pcDNA-3.1": {"test_system": "HEK 293-pcDNA-3.1", "test": "MTT cytotoxicity assay (Example 4)", "format": "cell-based", "description": "as §3, §4, §5"}, "HEK/ABCB1 (ABCB1)": {"test_system": "HEK/ABCB1 (ABCB1)", "test": "MTT cytotoxicity/reversal assay (Example 1)", "conditions": "HEK/ABCB1; alone", "description": "The KB-C2 and KB-3-1 were kindly provided by Dr. Akiyama (Kagoshima University, Japan). […] Similarly, the HEK/MRP1 (ABCC1) and HEK/ABCB1 cells were generated by transfecting the HEK293 cells with either the MRP1 expression vector or the ABCB1 expression vector. All of the cell lines were grown in Dulbecco's modified Eagle's medium (DMEM) supplemented with 10% bovine serum, 100 units/ml penicillin, and […] streptomycin in a humidified incubator containing 5% CO2 at 37° C.\nas §2"}, "HEK293/pcDNA3.1": {"test_system": "HEK293/pcDNA3.1", "test": "MTT cytotoxicity/reversal assay (Example 1)", "format": "cell-based", "conditions": "HEK293/pcDNA3.1; alone", "description": "as §1, §2"}, "HEK/MRP7 cells [1]": {"test_system": "HEK/MRP7 cells", "test": "[^3H]-paclitaxel efflux (Example 4)", "format": "cell-based", "conditions": "absence of PDE5 inhibitors", "description": "(§6) The effect of PDE5 inhibitors on the intracellular accumulation of paclitaxel in HEK293-pcDNA3.1 and HEK/MRP7 cells was measured using [^3H]-paclitaxel. […] For efflux studies, the cells were treated the same as in the drug accumulation study, and then washed three times with ice-cold PBS, and suspended in fresh medium with or without PDE5 inhibitors. Aliquots were evenly collected at various time points (0, 30, 60, and 120 min). Samples from both accumulation and efflux experiments were washed with ice-cold PBS three times and placed in scintillation fluid, and the radioactivity was measured in a Packard TRI-CARB® 1900CA liquid scintillation analyzer from Packard Instrument Company, Inc. (Downers Grove, Ill.)."}, "HEK/MRP7 cells [2]": {"test_system": "HEK/MRP7 cells", "test": "[^3H]-paclitaxel accumulation (Example 4)", "format": "cell-based", "conditions": "no inhibitor", "description": "as §6"}}, "note": "Marks after values point to notes of the source that are not given here.", "data": [{"smiles": "CC(=O)O[C@H]1C(=O)[C@@]2(C)[C@H]([C@H](OC(=O)c3ccccc3)[C@]3(O)C[C@H](OC(=O)[C@H](O)[C@@H](NC(=O)c4ccccc4)c4ccccc4)C(C)=C1C3(C)C)[C@]1(OC(C)=O)CO[C@@H]1C[C@@H]2O", "note": "[Paclitaxel, paclitaxel]", "values": [{"measurement": "intracellular concentration of paclitaxel relative to parental KB-3-1 cells", "setting": "KB-C2 cells (ABCB1)", "result": "approximately 55%"}, {"measurement": "fold reversal, paclitaxel", "setting": "KB-C2 (ABCB1)", "result": "(1.00)"}, {"measurement": "fold reversal, paclitaxel", "setting": "KB-3-1", "result": "(1.00)"}, {"measurement": "fold-resistance, paclitaxel", "setting": "HEK/MRP7", "result": "(9.21)"}, {"measurement": "fold-resistance, paclitaxel", "setting": "HEK 293-pcDNA-3.1; HEK 293-pcDNA-3.1, alone", "result": "(1.0)^b"}, {"measurement": "IC50", "setting": "HEK 293-pcDNA-3.1; read-out: IC50 of paclitaxel", "result": "11.6 ± 1.33", "unit": "nM"}, {"measurement": "fold reversal, paclitaxel", "setting": "HEK/ABCB1 (ABCB1)", "result": "(1.00)"}, {"measurement": "fold reversal, paclitaxel", "setting": "HEK293/pcDNA3.1", "result": "(1.00)"}, {"measurement": "accumulated [^3H]-paclitaxel remaining in cells", "setting": "HEK/MRP7 cells [1]; 30 min", "result": 62.43, "unit": "%"}, {"measurement": "accumulated [^3H]-paclitaxel remaining in cells", "setting": "HEK/MRP7 cells [1]; 60 min", "result": 39.47, "unit": "%"}, {"measurement": "accumulated [^3H]-paclitaxel remaining in cells", "setting": "HEK/MRP7 cells [1]; 120 min", "result": 23.44, "unit": "%"}, {"measurement": "intracellular concentration of [^3H]-paclitaxel relative to parental HEK293-pcDNA3.1", "setting": "HEK/MRP7 cells [2]", "result": 28.5, "unit": "%"}]}]}
